Drawing on paper PMC9160031, “Identification of HMGCR as the anticancer target of physapubenolide against melanoma cells by in silico target prediction” (Acta Pharmacologica Sinica, 2021), this text covers Kd for 1 compound.

The target in the assay is T1, 3-hydroxy-methylglutaryl CoA reductase (HMGCR) (Homo sapiens, UniProt P04035).
T1 sequence (P04035 1-888): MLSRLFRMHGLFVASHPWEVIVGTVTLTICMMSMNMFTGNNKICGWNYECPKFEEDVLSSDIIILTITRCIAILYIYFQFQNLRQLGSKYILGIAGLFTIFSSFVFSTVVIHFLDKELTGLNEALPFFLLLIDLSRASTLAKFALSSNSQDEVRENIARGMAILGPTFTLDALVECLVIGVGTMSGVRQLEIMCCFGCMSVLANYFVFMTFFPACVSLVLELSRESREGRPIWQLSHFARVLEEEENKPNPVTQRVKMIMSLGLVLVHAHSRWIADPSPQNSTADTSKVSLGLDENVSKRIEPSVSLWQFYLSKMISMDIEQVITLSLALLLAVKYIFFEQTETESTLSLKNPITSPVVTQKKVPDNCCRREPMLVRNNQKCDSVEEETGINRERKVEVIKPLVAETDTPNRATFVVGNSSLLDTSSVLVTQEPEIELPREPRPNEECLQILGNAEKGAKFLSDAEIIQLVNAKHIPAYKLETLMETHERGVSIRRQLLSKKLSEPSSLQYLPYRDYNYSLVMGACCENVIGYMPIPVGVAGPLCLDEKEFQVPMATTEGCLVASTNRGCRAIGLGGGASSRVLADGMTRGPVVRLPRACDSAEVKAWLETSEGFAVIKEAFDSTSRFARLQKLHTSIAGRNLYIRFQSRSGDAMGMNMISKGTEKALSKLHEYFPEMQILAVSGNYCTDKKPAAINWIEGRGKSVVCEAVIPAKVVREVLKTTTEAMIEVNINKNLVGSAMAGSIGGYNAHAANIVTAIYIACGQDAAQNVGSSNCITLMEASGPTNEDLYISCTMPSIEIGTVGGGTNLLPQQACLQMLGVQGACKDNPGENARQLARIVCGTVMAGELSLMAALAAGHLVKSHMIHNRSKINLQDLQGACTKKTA
As to the kind of experiment: SPR direct binding assay (PB listed as stationary phase).

Regarding `CC(=O)O[C@H]1CC([C@H](C)C2CC(C)=C(C)C(=O)O2)[C@@]2(C)CCC3C(C[C@H]4O[C@]45[C@@H](O)C=CC(=O)[C@]35C)[C@]12O` (stereo partly shown) [PB, Physapubenolide], the Kd worked out at 1460 nM.

By Kd is commonly meant the free concentration of one partner at which half of the binding sites on the other are occupied at equilibrium, for simple one-to-one binding. A high value points to lower affinity.
